# Activity calls are given as the source filed them. The rule behind the calls is not given here.
# Key:
# KGN [1] = assay: Protective effect against cisplatin-induced injury in human KGN cells assessed as cell survival at 25 to 50 uM incubated for 48 hrs by MTT assay; format: functional, cell-based; conditions: dose 25-50 µM
# KGN [2] = assay: Protective effect against cisplatin-induced injury in human KGN cells assessed as cell survival at 5 uM incubated for 48 hrs by MTT assay; format: functional, cell-based
# [3] = Cytotoxicity against human PDL cells assessed as cell survival rate at 50 uM incubated for 48 hrs by MTT assay relative to control; format: toxicity, cell-based; conditions: read-out: Survival
# [4] = Cytotoxicity against human MIHA cells assessed as cell survival rate at 50 uM incubated for 48 hrs by MTT assay relative to control; format: toxicity, cell-based; conditions: read-out: Survival
# [5] = Cytotoxicity against rat NRK cells assessed as cell survival rate at 50 uM incubated for 48 hrs by MTT assay relative to control; format: toxicity, cell-based; conditions: read-out: Survival
# KGN [6] = assay: Protective effect against cisplatin-induced injury in human KGN cells assessed as increase in p-AKT level incubated for 36 hrs by Western blot analysis; format: functional, cell-based; conditions: dose <= 10.0 µM
# [7] = Toxicity in Wistar rat model of cisplatin-induced damage assessed as body weight loss at 50 mg/kg, IG qd for 7 to 14 days; format: organism-based; conditions: in vivo, po, time 7-14 day
# KGN [8] = assay: Protective effect against cisplatin-induced injury in human KGN cells assessed as increase in serum E2 level at 1 to 10 uM by ELISA; format: functional, cell-based; conditions: dose 1-10 µM
# KGN [9] = assay: Protective effect against cisplatin-induced injury in human KGN cells assessed as increase in cell survival incubated for 48 hrs by MTT assay; format: functional, cell-based; conditions: dose 1.25-10 µM
# Rattus norvegicus [10] = assay: Protective effect against cisplatin-induced damage in Wistar rat assessed as increase in ovarian weight at 50 mg/kg, IG qd for 14 days; format: functional, organism-based; conditions: time 14.0 day
# Rattus norvegicus [11] = assay: Protective effect against cisplatin-induced damage in Wistar rat assessed as increase in uterine weight at 50 mg/kg, IG qd for 14 days; format: functional, organism-based; conditions: time 14.0 day
# KGN [12] = assay: Inhibition of cisplatin-induced apoptosis in human KGN cells at 10 uM incubated for 36 hrs by Annexin V-FITC/PI staining based analysis (reference value: 53.9 %); format: functional
# KGN [13] = assay: Protective effect against cisplatin-induced injury in human KGN cells assessed as recovery of cellular disruption at 1 to 10 uM by inverted microscopy; format: functional, cell-based; conditions: dose 1-10 µM
# KGN [14] = assay: Inhibition of cisplatin-induced apoptosis in human KGN cells assessed as increase in Bcl-2 expression at 1 to 10 uM by immunoblot analysis; format: functional, cell-based; conditions: dose 1-10 µM
# Rattus norvegicus [15] = assay: Protective effect against cisplatin-induced damage in Wistar rat assessed as increase in sinus follicle numbers in ovaries at 50 mg/kg, IG qd for 14 days by H and E staining based analysis; format: functional, organism-based; conditions: time 14.0 day
# KGN [16] = assay: Protective effect against cisplatin-induced injury in human KGN cells assessed as recovery of cellular suspension at 1 to 10 uM by inverted microscopy; format: functional, cell-based; conditions: dose 1-10 µM
# Rattus norvegicus [17] = assay: Protective effect against cisplatin-induced damage in Wistar rat assessed as increase in growing follicle numbers in ovaries at 50 mg/kg, IG qd for 14 days by H and E staining based analysis; format: functional, organism-based; conditions: time 14.0 day
# KGN [18] = assay: Inhibition of cisplatin-induced apoptosis in human KGN cells assessed as decrease in Bax expression at 1 to 10 uM by immunoblot analysis; format: functional, cell-based; conditions: dose 1-10 µM
# KGN [19] = assay: Protective effect against cisplatin-induced injury in human KGN cells harboring siSIRT1 at 2.5 uM incubated for 36 hrs by Western blot analysis; format: functional, cell-based
# KGN [20] = assay: Protective effect against cisplatin-induced injury in human KGN cells assessed as recovery of cell numbers at 1 to 10 uM by inverted microscopy; format: functional, cell-based; conditions: dose 1-10 µM
# KGN [21] = assay: Protective effect against cisplatin-induced injury in human KGN cells assessed as cell survival rate at 5 uM incubated for 48 hrs by MTT assay (reference value: 65 %); format: functional; conditions: read-out: Survival
# Rattus norvegicus [22] = assay: Protective effect against cisplatin-induced damage in Wistar rat assessed as improvement in ovarian structure at 50 mg/kg, IG qd for 14 days by H and E staining based analysis; format: functional, organism-based; conditions: time 14.0 day
# KGN [23] = assay: Protective effect against cisplatin-induced injury in human KGN cells assessed as recovery of cell growth at 1 to 10 uM by inverted microscopy; format: functional, cell-based; conditions: dose 1-10 µM
# Rattus norvegicus [24] = assay: Protective effect against cisplatin-induced damage in Wistar rat assessed as reduction in vascular congestion in ovaries at 50 mg/kg, IG qd for 14 days by H and E staining based analysis; format: functional, organism-based; conditions: time 14.0 day
# KGN [25] = assay: Inhibition of cisplatin-induced apoptosis in human KGN cells at 1 uM incubated for 36 hrs by Annexin V-FITC/PI staining based analysis (reference value: 53.9 %); format: functional
# KGN [26] = assay: Protective effect against cisplatin-induced injury in human KGN cells assessed as increase in SIRT1 level incubated for 36 hrs by Western blot analysis; format: functional, cell-based; conditions: dose <= 10.0 µM
# Rattus norvegicus [27] = assay: Protective effect against cisplatin-induced damage in Wistar rat assessed as increase in primordial follicle numbers in ovaries at 50 mg/kg, IG qd for 14 days by H and E staining based analysis; format: functional, organism-based; conditions: time 14.0 day
# Rattus norvegicus [28] = assay: Protective effect against cisplatin-induced damage in Wistar rat assessed as increase in organ indices at 50 mg/kg, IG qd for 14 days; format: functional, organism-based; conditions: time 14.0 day
# Rattus norvegicus [29] = assay: Protective effect against cisplatin-induced damage in Wistar rat assessed as increase in serum E2 level at 50 mg/kg, IG qd for 14 days by ELISA; format: functional, organism-based; conditions: time 14.0 day
# KGN [30] = assay: Inhibition of cisplatin-induced apoptosis in human KGN cells at 5 uM incubated for 36 hrs by Annexin V-FITC/PI staining based analysis (reference value: 53.9 %); format: functional
# KGN [31] = assay: Cytotoxicity against human KGN cells at 1.25 to 10 uM incubated for 48 hrs by MTT assay; format: toxicity, cell-based; conditions: dose 1.25-10 µM
# Rattus norvegicus [32] = assay: Protective effect against cisplatin-induced damage in Wistar rat assessed as decrease in atretic follicle numbers in ovaries at 50 mg/kg, IG qd for 14 days by H and E staining based analysis; format: functional, organism-based; conditions: time 14.0 day
# Rattus norvegicus [33] = assay: Protective effect against cisplatin-induced damage in Wistar rat assessed as decrease in uterine wall thinning at 50 mg/kg, IG qd for 14 days by H and E staining based analysis; format: functional, organism-based; conditions: time 14.0 day
# KGN [34] = assay: Protective effect against cisplatin-induced injury in human KGN cells assessed as cell survival rate at 5 uM incubated for 48 hrs by MTT assay (Rvb ~ 60 %); format: functional; conditions: read-out: Survival
# [35] = Cytotoxicity against human MIHA cells assessed as cell viability at 50 uM incubated for 48 hrs by MTT assay; format: toxicity, cell-based
# NRK = assay: Cytotoxicity against rat NRK cells assessed as cell viability at 50 uM incubated for 48 hrs by MTT assay; format: toxicity, cell-based
# [36] = Cytotoxicity against human PDL cells assessed as cell viability at 50 uM incubated for 48 hrs by MTT assay; format: toxicity, cell-based
smiles,measurement,setting,value
CC1N[C@@]2(C(=O)c3cccc4cccc2c34)[C@@]2(CCC/C(=C\c3ccccc3F)C2=O)[C@H]1c1ccccc1F (stereo partly specified),Activity,KGN [1],Active
same,Activity,KGN [2],Active
CN1C[C@H](c2ccccc2)[C@]2(CCC/C(=C\c3ccccc3)C2=O)[C@]12C(=O)c1cccc3cccc2c13,"viability at 48 h, 50 µM",[3],97.5%
same,"viability at 48 h, 50 µM",[4],89.5%
same,"viability at 48 h, 50 µM",[5],94%
COc1ccc(/C=C2\CCC[C@@]3(C2=O)[C@@H](c2ccc(OC)c(OC)c2)C(C)N[C@@]32C(=O)c3cccc4cccc2c34)cc1OC (stereo partly specified),Activity,KGN [6],Dose-Dependent Effect
same,Activity,[7],Non-Toxic
same,Activity,KGN [8],Active
same,Activity,KGN [9],Dose-Dependent Effect
same,Activity,Rattus norvegicus [10],Active
same,Activity,Rattus norvegicus [11],Active
same,inhibition at 10 µM,KGN [12],27.8%
same,Activity,KGN [13],Active
same,inhibition,KGN [14],Active
same,Activity,KGN [1],Active
same,Activity,Rattus norvegicus [15],Active
same,Activity,KGN [16],Active
same,Activity,Rattus norvegicus [17],Active
same,inhibition,KGN [18],Active
same,Activity,KGN [19],inactive
same,Activity,KGN [20],Active
same,viability at 5 µM,KGN [21],94%
same,Activity,Rattus norvegicus [22],Active
same,Activity,KGN [23],Active
same,Activity,Rattus norvegicus [24],Active
same,inhibition at 1 µM,KGN [25],8.6%
same,Activity,KGN [26],Dose-Dependent Effect
same,Activity,Rattus norvegicus [27],Active
same,Activity,Rattus norvegicus [28],Active
same,Activity,Rattus norvegicus [29],Active
same,inhibition at 5 µM,KGN [30],21.1%
same,Activity,KGN [31],Non-Toxic
same,Activity,Rattus norvegicus [32],Active
same,Activity,Rattus norvegicus [33],Active
CC1N[C@@]2(C(=O)c3cccc4cccc2c34)[C@@]2(CCC/C(=C\c3ccccc3)C2=O)[C@H]1c1ccccc1 (stereo partly specified),viability at 5 µM,KGN [34],75.3%
CC1N[C@@]2(C(=O)c3cccc4cccc2c34)[C@@]2(CCC/C(=C\c3ccc(F)cc3)C2=O)[C@H]1c1ccc(F)cc1 (stereo partly specified),Activity,KGN [1],Active
same,Activity,KGN [2],Active
CN1C[C@H](c2ccccc2)[C@H](C(=O)/C=C/c2ccccc2)[C@]12C(=O)Nc1ccc(F)cc12,Activity,[35],Toxic
same,Activity,NRK,Toxic
same,Activity,[36],Toxic
CN1C[C@H](c2ccccc2)[C@]2(COC/C(=C\c3ccccc3)C2=O)[C@]12C(=O)Nc1ccccc12,Activity,[35],Non-Toxic
same,Activity,NRK,Non-Toxic
same,Activity,[36],Non-Toxic
CN1C[C@H](c2ccccc2)[C@]2(COC/C(=C\c3ccccc3)C2=O)[C@]12C(=O)Nc1ccc(F)cc12,Activity,[35],Non-Toxic
same,Activity,NRK,Non-Toxic
same,Activity,[36],Non-Toxic
CN1C[C@H](c2ccccc2)[C@]2(CCC/C(=C\c3ccccc3)C2=O)[C@]12C(=O)Nc1ccc(Cl)cc12,Activity,[35],Non-Toxic
same,Activity,NRK,Non-Toxic
same,Activity,[36],Non-Toxic
COc1cc(/C=C2\CCC[C@@]3(C2=O)[C@@H](c2cc(OC)cc(OC)c2)C(C)N[C@@]32C(=O)c3cccc4cccc2c34)cc(OC)c1 (stereo partly specified),Activity,KGN [1],Active
same,Activity,KGN [2],inactive
CN1C[C@H](c2ccccc2)[C@]2(CN(C(=O)OC(C)(C)C)C/C(=C\c3ccccc3)C2=O)[C@]12C(=O)Nc1ccccc12,Activity,[35],Non-Toxic
same,Activity,NRK,Non-Toxic
same,Activity,[36],Non-Toxic
CN1C[C@H](c2ccccc2)[C@H](C(=O)/C=C/c2ccccc2)[C@]12C(=O)Nc1ccccc12,Activity,[35],Toxic
same,Activity,NRK,Toxic
same,Activity,[36],Toxic
CN1C[C@H](c2ccccc2)[C@]2(CN(C(=O)OC(C)(C)C)C/C(=C\c3ccccc3)C2=O)[C@]12C(=O)Nc1ccc(Cl)cc12,Activity,[35],Non-Toxic
same,Activity,NRK,Non-Toxic
same,Activity,[36],Non-Toxic
CN1C[C@H](c2ccccc2)[C@H](C(=O)/C=C/c2ccccc2)[C@]12C(=O)Nc1ccc(Cl)cc12,Activity,[35],Toxic
same,Activity,NRK,Toxic
same,Activity,[36],Toxic
CN1C[C@H](c2ccccc2)[C@]2(CCC/C(=C\c3ccccc3)C2=O)[C@]12C(=O)Nc1ccc(F)cc12,Activity,[35],Non-Toxic
same,Activity,NRK,Non-Toxic
same,Activity,[36],Non-Toxic
CN1C[C@H](c2ccccc2)[C@]2(CN(C(=O)OC(C)(C)C)C/C(=C\c3ccccc3)C2=O)[C@]12C(=O)Nc1ccc(F)cc12,Activity,[35],Non-Toxic
same,Activity,NRK,Non-Toxic
same,Activity,[36],Non-Toxic
COc1ccc(/C=C2\CCC[C@@]3(C2=O)[C@@H](c2ccc(OC)cc2)C(C)N[C@@]32C(=O)c3cccc4cccc2c34)cc1 (stereo partly specified),Activity,KGN [1],Active
same,Activity,KGN [2],inactive

# From ChEMBL document CHEMBL5584293, “Discovery and evaluation of novel spiroheterocyclic protective agents via a SIRT1 upregulation mechanism in cisplatin-induced premature ovarian failure” (Bioorg Med Chem, 2024)
